One data set has as its system B1 B-ALL cell line. Description: Cytotoxicity assay, B1. The note with it: four days in culture, Alamar blue assay or automated microscopy, ± SD, three experiments. The class given is cell-based, human. An outline of the steps:
(§1)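 Leukemia cells were exposed for 4 days to Aurora kinase inhibitors across final concentrations of 1×10^−6 to 10 µM. Survival, expressed as a percentage of vehicle-treated wells, came from Alamar blue absorbance or from imaging-based counts of viable cells.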
Background: Alamar Blue is a resazurin reagent that responds to reducing activity.

Another data set has as its system Nalm6 B-ALL cell line. As to the kind of experiment: Cytotoxicity assay, Nalm6. It counts as cell-based, human. Particulars: four days in culture, Alamar blue assay or automated microscopy, ± SD, three experiments. In a few lines: as §1
Another data set relates to Molm13 AML cell line. As to the kind of experiment: Cytotoxicity assay, Molm13. It counts as cell-based, human. The note with it: four days in culture, Alamar blue assay or automated microscopy, ± SD, three experiments. An outline of the steps: as §1
Another data set deals with C1 B-ALL cell line. Description: Cytotoxicity assay, C1. The class given is cell-based, human. Particulars: four days in culture, Alamar blue assay or automated microscopy, ± SD, three experiments. In a few lines: as §1
The test system of another data set is Normal Lymphocytes. As to the kind of experiment: Cytotoxicity assay, normal lymphocytes. It counts as cell-based, human. Particulars: normal lymphocytes (control for non-leukemia cytotoxicity), four days in culture, ± SD, three experiments.
In the next data set the test system is CEM T-ALL cell line. As to the kind of experiment: Cytotoxicity assay, CEM. The class given is cell-based, human. The note with it: four days in culture, Alamar blue assay or automated microscopy, ± SD, three experiments. In a few lines: as §1
The next data set deals with Aurora-B. Set-up: method as in earlier work. The note with it: literature values; ref [10],[22],[27],[40],[44]–[64] as listed per inhibitor in Table 1; read-out: Targets (IC50 Value): Aurora-B; cited from earlier work.
Data set [1] deals with normal bone marrow derived CD34+ cells. As to the kind of experiment: Hematopoietic colony forming cell assay. The class given is cell-based, human. Particulars: myeloid and erythroid colonies from CD34+ cells; for colony formation at 0.1–10 µM: 14 days. Here is the method:
The hematopoietic colony forming cell assay was conducted based on a protocol outlined by StemCell Technologies (Vancouver, British Columbia, Canada). To begin, CD34^+ cells were isolated from residual normal bone marrow transplant specimens obtained after informed consent. Next, several concentrations of Aurora A Inhibitor I, Hesperadin, ZM447439 and AT9283 (0.01, 0.1, 1, 10 µM) and DMSO (Sigma-Aldrich, Oakville, Ontario) (10 µM) were added to separate tubes of MethoCult (StemCell Technologies), a methylcellulose matrix containing recombinant human cytokines stem cell factor (rh SCF), granulocyte macrophage colony-stimulating factor (rh GM-CSF), interleukin-3 (rh IL-3), granulocyte colony stimulating factor (rh G-CSF) and erythropoietin (rh EPO). Following the addition of CD34^+ cells at a final concentration of 5×10^3 cells per dish, the tubes were vortexed and allowed to stand for 5 minutes at room temperature. Next, the MethoCult mixtures were be dispensed into 35 mm dishes (Corning Incorporated, Corning, New York) through blunt end needles (StemCell Technologies) and 5 ml syringes (BD Biosciences, Mississauga, Ontario) at a volume of 1.1 ml per dish. The medium was evenly distributed across the surface of each dish by gentle tilting and rotation. The dishes were then placed in a 150 mm tissue culture dish (BD Biosciences) containing additional 35 mm dishes with sterile water to maintain humidity. The tissue culture dish was then placed at 37°C in a humidified incubator containing 5% CO2 for 14 days. The number of myeloid and erythroid derived colonies in both the treated and control dishes were counted and compared.

In the next data set the test system is UOCB1 B-ALL cell line. As to the kind of experiment: Cytotoxicity assay, UOCB1. The class given is cell-based, human. The note with it: four days in culture, Alamar blue assay or automated microscopy, ± SD, three experiments. In a few lines:
as §1

Data set [2] has as its system Patient #2 relapsed AML primary leukemia cells. Description: Cytotoxicity assay, primary sample Patient #2. It counts as cell-based, human. The note with it: four days in culture, Alamar blue assay or automated microscopy, one complete study. An outline of the steps: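 Ficoll-isolated primary leukemic white cells (1×10^4 per well) in Opti-MEM exposed in triplicate to Aurora kinase inhibitors at 1×10^−6 to 10 µM or DMSO for 4 days. Survival measured by Alamar blue absorbance (570–620 nm) or bright-field direct cell counting, as percent of vehicle control.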

The test system of the next data set is TIB-202 AML cell line. Description: Cytotoxicity assay, TIB-202. The class given is cell-based, human. Particulars: AML cell line TIB-202, four days in culture, Alamar blue assay or automated microscopy, ± SD, three experiments. In a few lines:
as §1

Here are results for 3 compounds from PMC4105567, “Aurora Kinases as Druggable Targets in Pediatric Leukemia: Heterogeneity in Target Modulation Activities and Cytotoxicity by Diverse Novel Therapeutic Agents” (PLoS ONE, 2014).

A word on the IC50: it is the concentration at which inhibition is half-maximal. Consider `CCS(=O)(=O)Nc1ccc2c(c1)/C(=C(/Nc1ccc(CN3CCCCC3)cc1)c1ccccc1)C(=O)N2` [Hesperadin], for which the half-maximal inhibitory concentration (IC50) was 0.007 nM in the data set with B1 B-ALL cell line (Homo sapiens, 96 h); 0.004 nM in the data set with Nalm6 B-ALL cell line (Homo sapiens, NALM-6, 96 h); 0.3 nM in the data set with Molm13 AML cell line (Homo sapiens, MOLM-13, 96 h); 0.06 nM in the data set with C1 B-ALL cell line (Homo sapiens, 96 h); 2000 ± 1000 nM with Normal Lymphocytes (Homo sapiens, Lymphocyte, 96 h); < 0.001 nM in the data set on CEM T-ALL cell line (Homo sapiens, 96 h). The IC50 was 250 nM in the data set with Aurora-B; < 0.001 nM in the data set on UOCB1 B-ALL cell line (Homo sapiens, UoC-B1, 96 h); 0.3 nM in [2] (Homo sapiens, 96 h); 0.003 nM in the data set on TIB-202 AML cell line (Homo sapiens, 96 h). For the same compound, in data set [1], the “colony formation at 0.1–10 µM” value is reported as “completely inhibited the formation of both types of colonies”.

For the compound `CCN1CCN(C(=O)Cc2ccc(Nc3ncc(F)c(Nc4ccc(C(=O)Nc5ccccc5Cl)cc4)n3)cc2)CC1` [Aurora A Inhibitor I], the half-inhibitory concentration (IC50) is 700 ± 100 nM in the data set with B1 B-ALL cell line; 400 ± 80 nM with Nalm6 B-ALL cell line; 2000 ± 1000 nM with Molm13 AML cell line; 900 ± 200 nM with C1 B-ALL cell line; 3000 ± 500 nM in the data set on Normal Lymphocytes; 300 ± 200 nM with CEM T-ALL cell line. Also, the IC50 in the data set with Aurora-B is 3400 nM; with UOCB1 B-ALL cell line it was 20 ± 9 nM; in data set [2], 1000 nM; with TIB-202 AML cell line, 5 ± 2 nM. Further, the “concentration up to which colony formation was not affected” value in [1] (14 days in methylcellulose culture, tested 0.01, 0.1, 1, 10 µM) was ≤ 100 nM.

In the case of `O=C(Nc1c[nH]nc1-c1nc2ccc(CN3CCOCC3)cc2[nH]1)NC1CC1` [AT9283], the IC50 with B1 B-ALL cell line (Homo sapiens, 96 h) turned out to be 60 ± 30 nM; with Nalm6 B-ALL cell line (Homo sapiens, NALM-6, 96 h), 6 ± 3 nM; with Molm13 AML cell line (Homo sapiens, MOLM-13, 96 h), 5 ± 3 nM; in the data set on C1 B-ALL cell line (Homo sapiens, 96 h) it was 0.6 nM; with Normal Lymphocytes (Homo sapiens, Lymphocyte, 96 h), 9000 ± 1000 nM; in the data set on CEM T-ALL cell line (Homo sapiens, 96 h), 0.7 nM. Moreover, the IC50 in the data set with Aurora-B was 3 nM; with UOCB1 B-ALL cell line (Homo sapiens, UoC-B1, 96 h), 0.08 nM; in [2] (Homo sapiens, 96 h), 80 nM; in the data set on TIB-202 AML cell line (Homo sapiens, 96 h) it was 800 ± 200 nM. Moreover, the “colony formation at 0.1–10 µM” value in data set [1] is recorded as “completely inhibited the formation of both types of colonies”.
